The values below come from patent US20100075893A1, “PREPARATION OF A PHARMACEUTICAL COMPOSITION FOR INCREASING BONE MINERAL DENSITY” (priority 2008, published 2010).

The subject of test [1] is C57B1/6J females. Nature of the test: Bone mineral density increase in mice by slow release CART treatment (in vivo micro-CT, distal femur). The procedure: In this experiment mice were treated with 3 different concentrations of CART peptide. The experiment was conducted in 12 weeks old C57B1/6J females and consisted of four experimental groups (n=5 per group). The first group of mice received placebo slow release pellets (SX-999, 60 day slow release pellets, Innovative Research of America, Sarasota, Fla.). The other three groups were treated with SX-999 slow release pellets containing either 20 μg, 50 μg or 100 μg (2×50 μg) rat CART 55-102 peptide (rCART) (Phoenix Pharmaceuticals, Inc. Belmont, Calif.). Mice were sedated with injection anaesthetics (Hypnorm (VetaPharma, Leeds, UK)/Dormicum (Roche, Mijdrecht, The Netherlands)) and the pellets were implanted subcutaneously in the neck. Bone architecture and density was determined at the distal femur at T=0 by an in vivo micro-CT measurement (Skyscan1076 micro-CT scanner, Skyscan, Kontich, Belgium). Scans were performed at 9 μm resolution. Trabecular bone analysis was performed on a 2 mm slice 150 μm proximal to the distal growth plate of the femur. In vivo micro-CT measurements were repeated at day 28 and day 60. The BMD value of the placebo group at T=0, T=28 and T=60 days was set at 100% and the BMD values of the 20 μg, 50 μg and 100 μg (2×50 μg) CART treated groups were calculated relatively to the placebo group. Values are expressed as mean±SD of the individual data. For statistical analysis the treatment groups were compared with the placebo group of the corresponding time point in a standard Student T-test (two-tailed). P<0.05 was considered as significant.

The subject of another test is bovine granulosa cells. Kind of test: CART induced suppression of FSH-induced 17β-estradiol production in bovine granulosa cells. The class given is cell-based. The note with it: 1 μM CART peptide, 7 days culture. The procedure:
Ovaries from double muscled cows were obtained at a local abattoir and granulosa cells were collected from 3- to 5-mm follicles at random stages of the estrus cycle. Follicles were placed in culture medium (M505 medium (Gibco Invitrogen, Carlsbad, Calif., USA) supplemented with antibiotics (100 IU/ml penicillin and 0.1 mg/ml streptomycin (Invitrogen, Carlsbad, Calif., USA), 10 ng/mL insulin (Schering-Plough, Oss, The Netherlands), 4 ng/mL sodium selenite (Sigma Aldrich, St. Louis, Mo., USA), 5 μg/mL apo-transferrin (Sigma Aldrich, St. Louis, Mo., USA) and 10^−7M androstenedione (Org 6, Schering-Plough, Oss, The Netherlands)) at 37° C. Follicles were ruptured with a needle and the cells were passed through a cell strainer (70 μm nylon, Becton Dickinson, Bedford, USA). Cells were centrifuged for 10 min at 340×g and resuspended in culture medium. Cells (1×10^5 viable cells/well) were cultured in 96 wells plate for 7 days at 37° C. in a humidified atmosphere (5% CO2, 95% air) in the presence of 0, 20, 100 or 300 mUnits FSH (Org 32489, Schering-Plough, Oss, The Netherlands) in combination with […], 10^−7, […], 10^−9, 10^−10, 10^−11 or 10^−12M rat CART 55-102 (Phoenix Pharmaceuticals Inc., Belmont, Calif., USA). […] After 7 days 17β-estradiol levels were determined in the culture medium using a 17β-estradiol ELISA (Diagnostic Systems Laboratories Inc., Marburg, Germany).

In test [2] the test system is C57B1/6J females. Nature of the test: CART slow release formulation vs. daily CART injections, bone mineral density in mice (in vivo micro-CT, distal femur). The note with it: daily s.c. injections of 2 μg in 0.9% NaCl, 30 days. The procedure:
In this experiment the effectiveness of CART peptide to improve bone mineral density via a slow release formulation was compared with daily injections of CART. The experiment was conducted in 12 weeks old C57B1/6J females and consisted of four experimental groups (n=5 per group). In the first group of mice 2 placebo slow release pellets (SX-999, 60 day pellets, Innovative Research of America, Sarasota, Fla.) were implanted subcutaneously in the neck. In the second group 2 SX-999 slow release pellets containing 50 μg rat CART55-102 (Phoenix Pharmaceuticals, Inc. Belmont, Calif.) each, were implanted subcutaneously in the neck. The other two groups received daily s.c. injections with either vehicle (0.9% NaCl) or with 2 μg rat CART55-102 peptide in 0.9% NaCl. Mice were sedated with injection anaesthetics (Hypnorm (VetaPharma, Leeds, UK)/Dormicum (Roche, Mijdrecht, The Netherlands)) and bone density was determined in the distal femur by an in vivo micro-CT measurement (Skyscan1076 micro CT scanner, Skyscan, Belgium) at T=0 and at T=30 days. Blood was collected weekly by orbita puncture to determine serum CART levels. BMD (g/cm^3) was expressed as mean±SD of the individual data. Statistical analysis was performed using the Student T-test (two-tailed). P<0.05 was considered as significant.

Positions of bridges follow the written chain, without caps; N, C: chain ends. No end group written: not given here.

As for “Ile-Pro-Ile-Tyr-Glu-Lys-Lys-Tyr-Gly-Gln-Val-Pro-Met-Cys-Asp-Ala-Gly-Glu-Gln-Cys-Ala-Val-Arg-Lys-Gly-Ala-Arg-Ile-Gly-Lys-Leu-Cys-Asp-Cys-Pro-Arg-Gly-Thr-Ser-Cys-Asn-Ser-Phe-Leu-Leu-Lys-Cys-Leu (IPIYEKKYGQVPMCDAGEQCAVRKGARIGKLCDCPRGTSCNSFLLKCL; disulfide 14-32, 20-40, 34-47; ends not checked) [rat CART 55-102, rat CART 55-102 peptide (rCART) (Phoenix Pharmaceuticals, Inc.)]”, the “increase in trabecular bone mineral density (BMD) as compared to the placebo group” value in the test on C57B1/6J females [1] (50 μg rCART in SX-999 slow release pellet s.c., after 60 days) is listed as 40-50%; with C57B1/6J females [1] (100 μg (2×50 μg) rCART in SX-999 slow release pellets s.c., after 28 days), 50-60%; with C57B1/6J females [1] (100 μg (2×50 μg) rCART in SX-999 slow release pellets s.c., after 28 days, listed as CART peptide) it was 50%; with C57B1/6J females [1] (100 μg (2×50 μg) rCART in SX-999 slow release pellets s.c., after 60 days), 80%. The “suppression of FSH-induced 17β-estradiol production” value was found to be 1.5 fold in the test with bovine granulosa cells (100 mUnits FSH) and 3 fold with bovine granulosa cells (300 mUnits FSH). Besides, in the test on C57B1/6J females [2], the “increase in BMD” value is on record as “did not show an increase in BMD”.
